Test results from patent US8324282B2, “Alkylating agent combinations in the treatment of cancer” (Case Western Reserve University, priority 1999, dated 2012).

How the values were obtained:
[1] = system: AP sites in calf thymus DNA; experiment: Competitive AP site binding assayed by Aldehyde Reactive Probe (ARP)
Excerpt: 1. Analysis of chemical—modified AP Sites assayed by Aldehyde Reactive Probe (ARP). This is a competitive assay to measure the reactivity with AP site between ARP reagent (Dojindo Molecular Technologies Inc., Gaithersburg, Md.) and the screening compounds. ARP and MX have a similar reactivity with AP sites. They react specifically with an aldehyde group that is open ring form of the AP sites. Thus this assay will allow identification of compounds with potential to block AP site repair based on the binding affinity and efficiency to AP sites of screening compounds compared to ARP and MX.
a. AP site standard preparation: AP sites were produced in a calf thymus DNA by heat/acid-buffer solution. Intact calf thymus DNA was added to sodium citrate buffer (10 mM sodium citrate containing 10 mM NaH2PO4 and 10 mM NaCl, pH 5.0) and held at 70° C. for 30 min. The reaction was stopped by chilling rapidly on ice, and the DNA was then precipitated with cold ethanol, washed with 70% ethanol, dried, and resuspended in sterilized distilled water.
b. […] After NC membrane was rinsed with washing buffer containing NaCl (0.26 M), EDTA (1 mM), Tris-HCI (20 mM), and Tween 20 (1%), ARP-AP sites are visualized with ECL reagents (Amersham Corp.) (FIG. 22A) and quantitated by scanning densitometer (FIG. 22B).

AP-endonuclease (APE) = experiment: AP site cleavage by AP-endonuclease (APE); format: biochemical
Procedure: 2. AP sites cleavaged by AP-endonuclease (APE). […] The assay may be performed as follows (see also FIGS. 23A and B):
a. AP site is prepared by replacing single nucleoside with deoxyuridine in duplex oligonucleotides (40 mer).
b. Regular AP site is produced in the duplex oligonucleotides by human uracil DNA glycosylase (LIDGase, Trevigen, Gaithersburg, Md.) to remove the uracil residue.
c. To generate MX-adducted AP site substrates: the UDG-treated duplex oligonucleotides are mixed with 10 mM MX in buffer containing 10 mM KPO4, pH 7.1 and incubated at 37° C. After 30 min, the substrates are recovered by ethanol precipitation, lyophilized, resuspended in water, and stored at −20° C.
d. APE-cleavage reaction: DNA substrates containing either regular AP-sites or chemicalmodified AP sites are incubated with APE (Trevigen, Gaithersburg, Md.) for 30 min and reactants are precipitated with 100% cold ethanol, washed with 70% ethanol and resuspended in TE buffer. The reactants are resolved by denaturing 20% polyacrylamide gel electrophoresis and visualized by silver staining (Silver Staining Kit, Pharmacia Biotech).

[2] = system: DLD1 cells and HCT116 cells; experiment: Potentiation of TMZ cytotoxicity by compound A in tumor cells; format: cell-based
Procedure: (§1) On the basis of a similar molecular reaction to MX, (e.g., a primary amine with the carbonyl group of the abasic site), we tested whether a compound (Compound A) would have the ability to bind to AP site generated by TMZ and enhance the killing effect of TMZ. A has a MX-like structure to bind to AP site and also has fluorescence molecules to provide a signal for direct detection of modified AP sites using cellular image. […] In in vitro study, we observed A at non-toxic concentrations (1 mM) sensitized cells to TMZ-cytotoxicity 2-3-fold. In a xenograft model, A (2 mg/kg) combined with TMZ (80 mg/kg) enhanced anti-tumor effect in HCT116 and DLD1, two xenograft tumors with very high resistance to TMZ. Tumor growth delays were 13 days in HCT116 and 12 days in DLD1 treated with the combination of A and TMZ over TMZ alone. Thus, A has a similar effect to MX on interruption of BER and can potentiate chemotherapeutic agents such as alkylating agents. Results are depicted in FIGS. 14-16.

AP sites in DNA = experiment: Cellular image of fluorescent A-modified AP sites; format: cell-based; conditions: A alone
Procedure: as §1

Q: How did the “binding to AP sites assayed with ARP” value [1] turn out when `NNC(=S)Nc1ccc(-c2c3ccc(=O)cc-3oc3cc(O)ccc23)c(C(=O)O)c1` [Compound A] was run?
A: Its value is “able to bind to AP sites”.

Q: And the “cleavage of modified AP sites by APE” value (AP-endonuclease (APE))?
A: The value was “refractory to cleavage”.

Q: What about the “cytotoxicity of A alone” value ([2]; 1 mM) of the same compound?
A: Its value is “non-toxic”.

Q: And the “sensitization to TMZ-cytotoxicity” value ([2]; A at 1 mM)?
A: The value was 2-3 fold.

Q: And the fluorescence signal (AP sites in DNA)?
A: Its fluorescence signal is “no visualized fluorescence signal”.
